Columns and labels:
[1] = tested on: HCC827-SVD cells (human EGFR exon 20 insertion mutant D770_N771insSVD); test: Cell growth inhibition (CellTiter-Glo), HCC827-SVD; format: cell-based; conditions: 72 h, 3 days
Protocol: (§1) Generation of HCC827-SVD, HCC827-ASV, and HCC827-YVMA cell lines. The HCC827-SVD cell line was generated by first transducing HCC827 cells (ATCC) with lentiviral particles expressing codon-optimized human EGFR exon 20 insertion mutant D770_N771insSVD, and then selecting under 5 µg/mL puromycin treatment for a week. The resulting cells were further transduced with lentiviral particles carrying EGFR sgRNA and CAS9 to knockout the endogenous alleles of EGER and then selected under 500 µg/mL hygromycin B treatment for two weeks. The limiting dilution approach was used to subsequently generate the single clone of the HCC827-SVD stable cell line. Endogenous EGFR knockout was confirmed by Sanger sequencing of cell genomic DNA, and expression of exogenous mutant EGFR was verified by Western blot analysis.
(§2) 2. Cell Growth Inhibition for HCC827, HCC827-SVD, HCC827-ASV, HCC827-YVMA, and A431.
(§3) HCC827(ATCC), HCC827-SVD, HCC827-ASV, and HCC827-YVMA cells were seeded in 96-well plates at 5000 cells/well in 90 μL of RPMI growth medium containing 10% FBS and 1% Penicillin Streptomycin. A431 (ATCC) cells were seeded in 96-well plates at 5000 cells/well in 90 μL of DMEM growth medium containing 10% FBS and 1% Penicillin Streptomycin. Cells were incubated at 37° C. overnight and then administered with 10 μL 10× test compounds prepared in the growth medium at various concentrations. After administration of the compounds, cells were incubated at 37° C. for 3 days. Before the CellTiter-Glo assay, the plates were equilibrated at room temperature for approximately 30 minutes. 100 ul of CellTiter-Glo reagent (Promega) was added to each well. The plates were then incubated at room temperature for 10 minutes and luminescence was recorded by the EnSight® multimode plate reader (PerkinElmer). Table 7 listed selected compounds in cellular growth assay.

[2] = tested on: HCC827-YVMA cells (human ERBB2 exon20 insertion mutant A775_G776ins YVMA); test: Cell growth inhibition (CellTiter-Glo), HCC827-YVMA; format: cell-based; conditions: 72 h, HCC827-YVMA cells, 3 days, CellTiter-Glo, read-out: Cell growth inhibition, GI50 (nM) HCC827-YVMA
Protocol: as §1
HCC827-ASV and HCC827-YVMA cell lines were generated in a similar approach as HCC827-SVD, except that HCC827 cells (ATCC) were first transduced with lentiviral particles expressing codon-optimized human EGFR exon 20 insertion mutant V769_D770insASV and human ERBB2 exon20 insertion mutant A775_G776ins YVMA, respectively.
as §2, §3

GI50 [1] | GI50 [2] | Compound
< 50 nM | < 50 nM | C=CC(=O)N1CCC(c2c[nH]c3ncnc(Nc4ccc(OCc5ncccc5Cl)c(Cl)c4)c23)CC1 [Compound 35, 1-(4-(4-((3-chloro-4-((3-chloropyridin-2-yl)methoxy)phenyl)amino)-7H-pyrrolo[2,3-d]pyrimidin-5-yl)piperidin-1-yl)prop-2-en-1-one]
< 50 nM | < 50 nM | C=CC(=O)N1CCC(c2c[nH]c3ncnc(Nc4ccc(OCc5cccc(F)n5)c(Cl)c4)c23)CC1 [Compound 36, 1-(4-(4-((3-chloro-4-((6-fluoropyridin-2-yl)methoxy)phenyl)amino)-7H-pyrrolo[2,3-d]pyrimidin-5-yl)piperidin-1-yl)prop-2-en-1-one]
< 50 nM | < 50 nM | C=CC(=O)N1CCC(c2c[nH]c3ncnc(Nc4ccc(OCc5ncccc5F)c(Cl)c4)c23)CC1 [Compound 37, 1-(4-(4-((3-chloro-4-((3-fluoropyridin-2-yl)methoxy)phenyl)amino)-7H-pyrrolo[2,3-d]pyrimidin-5-yl)piperidin-1-yl)prop-2-en-1-one]
50 to 200 nM | 50 to 200 nM | C=CC(=O)N1CCC(c2c[nH]c3ncnc(Nc4ccc(Oc5ccnc(NC(=O)C6CCCC6)c5)c(Cl)c4)c23)CC1 [Compound 38, N-[4-[2-chloro-4-[[5-(1-prop-2-enoyl-4-piperidyl)-7H-pyrrolo[2,3-d]pyrimidin-4-yl]amino]phenoxy]-2-pyridyl]cyclopentanecarboxamide]
< 50 nM | < 50 nM | C=CC(=O)N1CCC(c2c[nH]c3ncnc(Nc4ccc(OCc5ccccn5)c(Br)c4)c23)CC1 [Compound 39, 1-(4-(4-((3-bromo-4-(pyridin-2-ylmethoxy)phenyl)amino)-7H-pyrrolo[2,3-d]pyrimidin-5-yl)piperidin-1-yl)prop-2-en-1-one]
< 50 nM | < 50 nM | C=CC(=O)N1CCC(c2c[nH]c3ncnc(Nc4ccc(Oc5ccnc(Nc6ccccn6)c5)c(Cl)c4F)c23)CC1 [Compound 40, 1-(4-(4-((3-chloro-2-fluoro-4-((2-(pyridin-2-ylamino)pyridin-4-yl)oxy)phenyl)amino)-7H-pyrrolo[2,3-d]pyrimidin-5-yl)piperidin-1-yl)prop-2-en-1-one]
50 to 200 nM | 200 to 1000 nM | C=CC(=O)N1CCC(c2c[nH]c3ncnc(Nc4ccc(Oc5ccn(-c6ccc7cc[nH]c7n6)n5)cc4F)c23)CC1 [Compound 41, 1-(4-(4-((4-((1-(1H-pyrrolo[2,3-b]pyridin-6-yl)-1H-pyrazol-3-yl)oxy)-2-fluorophenyl)amino)-7H-pyrrolo[2,3-d]pyrimidin-5-yl)piperidin-1-yl)prop-2-en-1-one]
200 to 1000 nM | 200 to 1000 nM | C=CC(=O)N1CCC(c2c[nH]c3ncnc(Nc4ccc(Oc5ccnc(NCc6ccccn6)c5)cc4F)c23)CC1 [Compound 42, 1-(4-(4-((2-fluoro-4-((2-((pyridin-2-ylmethyl)amino)pyridin-4-yl)oxy)phenyl)amino)-7H-pyrrolo[2,3-d]pyrimidin-5-yl)piperidin-1-yl)prop-2-en-1-one]
50 to 200 nM | 50 to 200 nM | C=CC(=O)N1CCC(c2c[nH]c3ncnc(Nc4ccc(Oc5ccnc(N6CCC(C(F)(F)F)C6)c5)c(Cl)c4)c23)CC1 (stereo not shown) [Compound 43, 1-[4-[4-[3-chloro-4-[[2-[3-(trifluoromethyl)pyrrolidin-1-yl]-4-pyridyl]oxy]anilino]-7H-pyrrolo[2,3-d]pyrimidin-5-yl]-1-piperidyl]prop-2-en-1-one]
200 to 1000 nM | 200 to 1000 nM | C=CC(=O)N1CCC(c2c[nH]c3ncnc(Nc4ccc(Oc5ccnc(Nc6ccccn6)n5)cc4F)c23)CC1 [Compound 44, 1-(4-(4-((2-fluoro-4-((2-(pyridin-2-ylamino)pyrimidin-4-yl)oxy)phenyl)amino)-7H-pyrrolo[2,3-d]pyrimidin-5-yl)piperidin-1-yl)prop-2-en-1-one]
50 to 200 nM | 50 to 200 nM | C=CC(=O)N1CCC(c2c[nH]c3ncnc(Nc4ccc(Oc5ccnc(NCC(C)C)n5)cc4F)c23)CC1 [Compound 45, 1-(4-(4-((2-fluoro-4-((2-(isoButylamino)pyrimidin-4-yl)oxy)phenyl)amino)-7H-pyrrolo[2,3-d]pyrimidin-5-yl)piperidin-1-yl)prop-2-en-1-one]
50 to 200 nM | 50 to 200 nM | C=CC(=O)N1CCC(c2c[nH]c3ncnc(Nc4ccc(Oc5ccnc6cc[nH]c56)c(Cl)c4)c23)CC1 [Compound 46, 1-(4-(4-((4-((1H-pyrrolo[3,2-b]pyridin-7-yl)oxy)-3-chlorophenyl)amino)-7H-pyrrolo[2,3-d]pyrimidin-5-yl)piperidin-1-yl)prop-2-en-1-one]
< 50 nM | 50 to 200 nM | C=CC(=O)N1CCC(c2c[nH]c3ncnc(Nc4ccc(OCc5cnc(Cn6cncn6)nc5)c(Cl)c4)c23)CC1 [Compound 47, 1-(4-(4-((4-((2-((1H-1,2,4-triazol-1-yl)methyl)pyrimidin-5-yl)methoxy)-3-chlorophenyl)amino)-7H-pyrrolo[2,3-d]pyrimidin-5-yl)piperidin-1-yl)prop-2-en-1-one]
50 to 200 nM | 50 to 200 nM | C=CC(=O)N1CCC(c2c[nH]c3ncnc(Nc4ccc(Oc5ccnc(-c6ccn(C)n6)c5)c(Cl)c4)c23)CC1 [Compound 48, 1-(4-(4-((3-chloro-4-((2-(1-methyl-1H-pyrazol-3-yl)pyridin-4-yl)oxy)phenyl)amino)-7H-pyrrolo[2,3-d]pyrimidin-5-yl)piperidin-1-yl)prop-2-en-1-one]
50 to 200 nM | < 50 nM | C=CC(=O)N1CCC(c2c[nH]c3ncnc(Nc4ccc(Oc5ccnc(Nc6ccccn6)c5)c(Cl)c4)c23)CC1 [Compound 49, 1-(4-(4-((3-chloro-4-((2-(pyridin-2-ylamino)pyridin-4-yl)oxy)phenyl)amino)-7H-pyrrolo[2,3-d]pyrimidin-5-yl)piperidin-1-yl)prop-2-en-1-one]
200 to 1000 nM | 50 to 200 nM | C=CC(=O)N1CCC(c2c[nH]c3ncnc(Nc4ccc(Oc5ccnc(N6CCC(C(F)(F)F)C6)n5)cc4F)c23)CC1 (stereo not shown) [Compound 50, 1-(4-(4-((2-fluoro-4-((2-(3-(trifluoromethyl)pyrrolidin-1-yl)pyrimidin-4-yl)oxy)phenyl)amino)-7H-pyrrolo[2,3-d]pyrimidin-5-yl)piperidin-1-yl)prop-2-en-1-one]
200 to 1000 nM | 200 to 1000 nM | C=CC(=O)N1CCC(c2c[nH]c3ncnc(Nc4ccc(Oc5ccnc(C6CCC6)c5)cc4F)c23)CC1 [Compound 51, 1-(4-(4-((4-((2-cycloButylpyridin-4-yl)oxy)-2-fluorophenyl)amino)-7H-pyrrolo[2,3-d]pyrimidin-5-yl)piperidin-1-yl)prop-2-en-1-one]
< 50 nM | < 50 nM | C=CC(=O)N1CCC(c2c[nH]c3ncnc(Nc4ccc(OCc5nncs5)c(Cl)c4)c23)CC1 [Compound 52, 1-(4-(4-((4-((1,3,4-thiadiazol-2-yl)methoxy)-3-chlorophenyl)amino)-7H-pyrrolo[2,3-d]pyrimidin-5-yl)piperidin-1-yl)prop-2-en-1-one]
200 to 1000 nM | 200 to 1000 nM | C=CC(=O)N1CCC(c2c[nH]c3ncnc(Nc4ccc(Oc5ccnc(-c6cccc(C(F)(F)F)c6)c5)cc4F)c23)CC1 [Compound 53, 1-(4-(4-((2-fluoro-4-((2-(3-(trifluoromethyl)phenyl)pyridin-4-yl)oxy)phenyl)amino)-7H-pyrrolo[2,3-d]pyrimidin-5-yl)piperidin-1-yl)prop-2-en-1-one]
< 50 nM | < 50 nM | C=CC(=O)N1CCC(c2c[nH]c3ncnc(Nc4ccc(CN(C)c5cnccn5)c(Cl)c4)c23)CC1 [Compound 54, 1-(4-(4-((3-chloro-4-((methyl(pyrazin-2-yl)amino)methyl)phenyl)amino)-7H-pyrrolo[2,3-d]pyrimidin-5-yl)piperidin-1-yl)prop-2-en-1-one]
< 50 nM | < 50 nM | C=CC(=O)N1CCC(c2c[nH]c3ncnc(Nc4ccc(OCC(=O)NC(C)C)c(Cl)c4)c23)CC1 [Compound 55, 2-(4-((5-(1-acryloylpiperidin-4-yl)-7H-pyrrolo[2,3-d]pyrimidin-4-yl)amino)-2-chlorophenoxy)-N-isopropylacetamide]
– | < 50 nM | C=CC(=O)N1CCC(c2c[nH]c3ncnc(Nc4ccc(Oc5cccc(C(F)(F)F)c5)c(Cl)c4)c23)CC1 [Compound 225, 1-[4-[4-[3-chloro-4-[3-(trifluoromethyl)phenoxy]anilino]-7H-pyrrolo[2,3-d]pyrimidin-5-yl]-1-piperidyl]prop-2-en-1-one]

— patent publication US20240059698A1 (Accutar Biotechnology Inc., priority 2022, published 2024)
